Measurements: patent US20220289691A1, “5-AMINO-SUBSTITUTED PYRAZOLES AND TRIAZOLES AS PEST CONTROL AGENTS” (Bayer Aktiengesellschaft, priority 2019, published 2022)

tested on: Diabrotica balteata; assay: Diabrotica balteata spray test; assay type: in vivo; conditions: 168 h, 100 g/ha (=32 μg/cavity), beetle larvae on wheat, after 7 days, read-out: efficacy (wheat plant growth)
Procedure: Diabrotica balteata—Spray Test Solvent: 78 parts by weight of acetone • • 1.5 parts by weight of dimethylformamide Emulsifier: alkylaryl polyglycol ether
(§1) To produce a suitable active compound formulation, 1 part by weight of active compound is dissolved using the stated parts by weight of solvent and made up with water containing an emulsifier concentration of 1000 ppm until the desired concentration is attained. To produce further test concentrations, the formulation is diluted with emulsifier-containing water.
Pre-swollen wheat grains (Triticum aestivum) are incubated in a multiwell plate filled with agar and a little water for one day (5 seed grains per cavity). The germinated wheat grains are sprayed with an active compound formulation of the desired concentration. Subsequently, each cavity is infected with 10-20 beetle larvae of Diabrotica balteata.
After 7 days, the efficacy in % is determined. 100% means that all wheat plants have grown as in the untreated, uninfected control; 0% means that no wheat plant has grown.

Structure (SMILES) | pest or weed control at 100 g/ha
COC(CCNc1nc(-c2ccc(C=NN=C3SCC(=O)N3c3ccccc3C(C)C)cc2)nn1-c1ccc(OC(F)(F)F)cc1)OC [Compound I-088] | 100%
CC(C)c1ccccc1N1C(=O)CSC1=NC(=O)Nc1ccc(-c2nc(NC(=O)C3CC3)n(-c3ccc(OC(F)(F)F)cc3)n2)cc1 [Compound I-035] | 80%
CCOC(=O)C(=O)Nc1nc(-c2ccc(NC(=O)N=C3SCC(=O)N3c3ccccc3C(C)C)cc2)nn1-c1ccc(OC(F)(F)F)cc1 [Compound I-037] | 80%
CC(C)c1ccccc1N1C(=O)CSC1=NN=Cc1ccc(-c2nc(NCCS(C)(=O)=O)n(-c3ccc(OC(F)(F)F)cc3)n2)cc1 [Compound I-095] | 100%
CNc1nc(-c2c(F)cc(C=NNC(=S)Nc3ccccc3C(C)C)cc2F)nn1-c1ccc(OC(F)(F)F)cc1 [Compound I-120] | 100%
CC(=O)Nc1cc(-c2ccc(C=NNC(=S)Nc3ccccc3C(C)C)cc2)nn1-c1ccc(OC(F)(F)F)cc1 [Compound I-040] | 80%

same assay, conditions: 168 h, 125 g/ha (=40 μg/cavity), beetle larvae on wheat, after 7 days, read-out: efficacy (wheat plant growth)

Structure (SMILES) | pest or weed control at 125 g/ha
CCN(CC)c1nc(-c2ccc(C=NNC(=S)Nc3ccccc3C(C)C)cc2)nn1-c1ccc(OC(F)(F)F)cc1 [Compound I-020] | 80%
CNc1nc(-c2ccc(NC(=O)N=C3SCC(=O)N3c3ccccc3C(C)C)cc2)nn1-c1ccc(OC(F)(F)C(F)(F)F)cc1 [Compound I-027] | 100%
CC(C)c1ccccc1N1C(=O)CSC1=NC(=O)Nc1ccc(-c2nc(N)n(-c3ccc(OC(F)(F)F)cc3)n2)cc1 [Compound I-025] | 100%
CC(C)c1ccccc1NC(=S)NN=Cc1ccc(-c2nc(N)n(-c3ccc(OC(F)(F)F)cc3)n2)cc1 [Compound I-021] | 100%

same assay, conditions: 168 h, 500 g/ha (=160 μg/cavity), beetle larvae on wheat, after 7 days, read-out: efficacy (wheat plant growth)

Structure (SMILES) | pest or weed control at 500 g/ha
CCN(CC)c1nc(-c2ccc(C=NNC(=S)Nc3ccccc3C(C)C)cc2)nn1-c1ccc(OC(F)(F)F)cc1 [Compound I-020] | 100%
CC(=O)Nc1nc(-c2ccc(NC(=O)N=C3SCC(=O)N3c3ccccc3C(C)C)cc2)nn1-c1ccc(OC(F)(F)C(F)(F)F)cc1 [Compound I-054] | 100%
CNc1nc(-c2ccc(NC(=O)N=C3SCC(=O)N3c3ccccc3C(C)C)cc2)nn1-c1ccc(OC(F)(F)C(F)(F)F)cc1 [Compound I-027] | 100%
CC(C)c1ccccc1N1C(=O)CSC1=NC(=O)Nc1ccc(-c2nc(N)n(-c3ccc(OC(F)(F)F)cc3)n2)cc1 [Compound I-025] | 100%
CC(C)c1ccccc1N1C(=O)CSC1=NC(=O)Nc1ccc(-c2nc(NC(=O)C3CC3)n(-c3ccc(OC(F)(F)F)cc3)n2)cc1 [Compound I-035] | 100%
CC(C)c1ccccc1NC(=S)NN=Cc1ccc(-c2nc(N)n(-c3ccc(OC(F)(F)F)cc3)n2)cc1 [Compound I-021] | 100%
CCOC(=O)C(=O)Nc1nc(-c2ccc(NC(=O)N=C3SCC(=O)N3c3ccccc3C(C)C)cc2)nn1-c1ccc(OC(F)(F)F)cc1 [Compound I-037] | 100%
CC(=O)Nc1cc(-c2ccc(C=NNC(=S)Nc3ccccc3C(C)C)cc2)nn1-c1ccc(OC(F)(F)F)cc1 [Compound I-040] | 100%
CNC(=O)Nc1nc(-c2ccc(NC(=O)N=C3SCC(=O)N3c3ccccc3C(C)C)cc2)nn1-c1ccc(OC(F)(F)F)cc1 [Compound I-030] | 100%

tested on: Meloidogyne incognita; assay: Meloidogyne incognita test; assay type: in vivo; conditions: 336 h, lettuce, after 14 days, read-out: nematicidal efficacy (formation of galls)
Procedure: Meloidogyne incognita Test Solvent: 125.0 parts by weight of acetone
To produce a suitable active compound formulation, 1 part by weight of active compound is mixed with the stated amount of solvent and the concentrate is diluted to the desired concentration with water.
Vessels are filled with sand, active compound solution, an egg/larvae suspension of the southern root-knot nematode (Meloidogyne incognita) and lettuce seeds. The lettuce seeds germinate and the plants develop. The galls develop on the roots.
After 14 days, the nematicidal efficacy in % is determined by the formation of galls. 100% means that no galls were found; 0% means that the number of galls on the treated plants corresponds to the untreated control.

Structure (SMILES) | pest or weed control at 20 ppm
CCN(CC)c1nc(-c2ccc(C=NNC(=S)Nc3ccccc3C(C)C)cc2)nn1-c1ccc(OC(F)(F)F)cc1 [Compound I-020] | 100%
CCNc1nc(-c2ccc(C=NN=C3SCC(=O)N3c3ccccc3C(C)C)cc2)nn1-c1ccc(OC(F)(F)F)cc1 [Compound I-047] | 90%
CC(C)Nc1nc(-c2ccc(C=NN=C3SCC(=O)N3c3ccccc3C(C)C)cc2)nn1-c1ccc(OC(F)(F)F)cc1 [Compound I-048] | 90%

tested on: Phaedon cochleariae; assay: Phaedon cochleariae spray test; assay type: in vivo; conditions: foliar, 168 h, 100 g/ha, Chinese cabbage leaf discs, after 7 days, read-out: efficacy (beetle larvae killed)
Procedure: Phaedon cochleariae—Spray Test Solvent: 78.0 parts by weight of acetone • • 1.5 parts by weight of dimethylformamide Emulsifier: alkylaryl polyglycol ether
as §1
Discs of Chinese cabbage leaves (Brassica pekinensis) are sprayed with an active compound formulation of the desired concentration and, after drying, populated with larvae of the mustard beetle (Phaedon cochleariae).
After 7 days, the efficacy in % is determined. 100% means that all the beetle larvae have been killed; 0% means that no beetle larvae have been killed.

Structure (SMILES) | pest or weed control at 100 g/ha
CCC(=O)Nc1nc(-c2ccc(C=NNC(=S)Nc3ccccc3C(C)C)cc2)nn1-c1ccc(OC(F)(F)F)cc1 [Compound I-012] | 100%
CO[C@@H]1[C@@H](OC)[C@H](C)O[C@@H](OC(=O)Nc2ccc(-c3nc(NC(=O)C4CC4)n(-c4ccc(OC(F)(F)C(F)(F)F)cc4)n3)cc2)[C@@H]1OC [Compound I-004] | 100%

same assay, conditions: foliar, 168 h, 500 g/ha, Chinese cabbage leaf discs, after 7 days, read-out: efficacy (beetle larvae killed)

Structure (SMILES) | pest or weed control at 500 g/ha
CO[C@@H]1[C@@H](OC)[C@H](C)O[C@@H](OC(=O)Nc2ccc(-c3nc(NC(=O)C4CC4)n(-c4ccc(OC(F)(F)C(F)(F)F)cc4)n3)cc2)[C@@H]1OC [Compound I-004] | 100%

tested on: Spodoptera frugiperda; assay: Spodoptera frugiperda spray test; assay type: in vivo; conditions: foliar, 168 h, 100 g/ha, maize leaf discs, after 7 days, read-out: efficacy (caterpillars killed)
Procedure: Spodoptera frugiperda—Spray Test Solvent: 78.0 parts by weight of acetone • • 1.5 parts by weight of dimethylformamide Emulsifier: alkylaryl polyglycol ether
as §1
Leaf discs of maize (Zea mays) are sprayed with an active compound formulation of the desired concentration and, after drying, populated with caterpillars of the fall armyworm (Spodoptera frugiperda).
After 7 days, the efficacy in % is determined. 100% means that all the caterpillars have been killed; 0% means that no caterpillar has been killed.

Structure (SMILES) | pest or weed control at 100 g/ha
CCN(CC)c1nc(-c2ccc(C=NNC(=S)Nc3ccccc3C(C)C)cc2)nn1-c1ccc(OC(F)(F)F)cc1 [Compound I-020] | 100%
CCC(=O)Nc1nc(-c2ccc(C=NNC(=S)Nc3ccccc3C(C)C)cc2)nn1-c1ccc(OC(F)(F)F)cc1 [Compound I-012] | 100%
CC(=O)Nc1nc(-c2ccc(NC(=O)N=C3SCC(=O)N3c3ccccc3C(C)C)cc2)nn1-c1ccc(OC(F)(F)C(F)(F)F)cc1 [Compound I-054] | 100%
CNc1nc(-c2ccc(NC(=O)N=C3SCC(=O)N3c3ccccc3C(C)C)cc2)nn1-c1ccc(OC(F)(F)C(F)(F)F)cc1 [Compound I-027] | 100%
COC(CCNc1nc(-c2ccc(C=NN=C3SCC(=O)N3c3ccccc3C(C)C)cc2)nn1-c1ccc(OC(F)(F)F)cc1)OC [Compound I-088] | 100%
CC(C)c1ccccc1N1C(=O)CSC1=NC(=O)Nc1ccc(-c2nc(N)n(-c3ccc(OC(F)(F)F)cc3)n2)cc1 [Compound I-025] | 100%
CC(C)c1ccccc1N1C(=O)CSC1=NC(=O)Nc1ccc(-c2nc(NC(=O)C3CC3)n(-c3ccc(OC(F)(F)F)cc3)n2)cc1 [Compound I-035] | 100%
CC(C)c1ccccc1NC(=S)NN=Cc1ccc(-c2nc(N)n(-c3ccc(OC(F)(F)F)cc3)n2)cc1 [Compound I-021] | 100%
CCOC(=O)C(=O)Nc1nc(-c2ccc(NC(=O)N=C3SCC(=O)N3c3ccccc3C(C)C)cc2)nn1-c1ccc(OC(F)(F)F)cc1 [Compound I-037] | 83%
CC(C)c1ccccc1N1C(=O)CSC1=NN=Cc1ccc(-c2nc(NCCS(C)(=O)=O)n(-c3ccc(OC(F)(F)F)cc3)n2)cc1 [Compound I-095] | 100%
CNc1nc(-c2c(F)cc(C=NNC(=S)Nc3ccccc3C(C)C)cc2F)nn1-c1ccc(OC(F)(F)F)cc1 [Compound I-120] | 100%
CC(=O)Nc1cc(-c2ccc(C=NNC(=S)Nc3ccccc3C(C)C)cc2)nn1-c1ccc(OC(F)(F)F)cc1 [Compound I-040] | 100%
CNC(=O)Nc1nc(-c2ccc(NC(=O)N=C3SCC(=O)N3c3ccccc3C(C)C)cc2)nn1-c1ccc(OC(F)(F)F)cc1 [Compound I-030] | 100%

same assay, conditions: foliar, 168 h, 500 g/ha, maize leaf discs, after 7 days, read-out: efficacy (caterpillars killed)

Structure (SMILES) | pest or weed control at 500 g/ha
CO[C@@H]1[C@@H](OC)[C@H](C)O[C@@H](OC(=O)Nc2ccc(-c3nc(NC(=O)C4CC4)n(-c4ccc(OC(F)(F)C(F)(F)F)cc4)n3)cc2)[C@@H]1OC [Compound I-004] | 83%
